The source made the active and inactive calls.
Experiments:
Macrophage [1] = test: Inhibition of cholesterol ester accumulation in macrophages (unknown origin); format: functional, cell-based
Macrophage [2] = test: Inhibition of RANKL-induced formation of multinuclear osteoclasts in macrophages (unknown origin); format: functional, cell-based
Homo sapiens [3] = species: Homo sapiens; test: Inhibition of ubiquitin/proteasome (unknown origin)
[4] = target: T1, Ubiquitin-like modifier-activating enzyme 1 (Homo sapiens) (UniProt P22314); test: Inhibition of ubiquitin/ubiquitin-activating enzyme E1 (unknown origin)
T1 sequence (whole entry): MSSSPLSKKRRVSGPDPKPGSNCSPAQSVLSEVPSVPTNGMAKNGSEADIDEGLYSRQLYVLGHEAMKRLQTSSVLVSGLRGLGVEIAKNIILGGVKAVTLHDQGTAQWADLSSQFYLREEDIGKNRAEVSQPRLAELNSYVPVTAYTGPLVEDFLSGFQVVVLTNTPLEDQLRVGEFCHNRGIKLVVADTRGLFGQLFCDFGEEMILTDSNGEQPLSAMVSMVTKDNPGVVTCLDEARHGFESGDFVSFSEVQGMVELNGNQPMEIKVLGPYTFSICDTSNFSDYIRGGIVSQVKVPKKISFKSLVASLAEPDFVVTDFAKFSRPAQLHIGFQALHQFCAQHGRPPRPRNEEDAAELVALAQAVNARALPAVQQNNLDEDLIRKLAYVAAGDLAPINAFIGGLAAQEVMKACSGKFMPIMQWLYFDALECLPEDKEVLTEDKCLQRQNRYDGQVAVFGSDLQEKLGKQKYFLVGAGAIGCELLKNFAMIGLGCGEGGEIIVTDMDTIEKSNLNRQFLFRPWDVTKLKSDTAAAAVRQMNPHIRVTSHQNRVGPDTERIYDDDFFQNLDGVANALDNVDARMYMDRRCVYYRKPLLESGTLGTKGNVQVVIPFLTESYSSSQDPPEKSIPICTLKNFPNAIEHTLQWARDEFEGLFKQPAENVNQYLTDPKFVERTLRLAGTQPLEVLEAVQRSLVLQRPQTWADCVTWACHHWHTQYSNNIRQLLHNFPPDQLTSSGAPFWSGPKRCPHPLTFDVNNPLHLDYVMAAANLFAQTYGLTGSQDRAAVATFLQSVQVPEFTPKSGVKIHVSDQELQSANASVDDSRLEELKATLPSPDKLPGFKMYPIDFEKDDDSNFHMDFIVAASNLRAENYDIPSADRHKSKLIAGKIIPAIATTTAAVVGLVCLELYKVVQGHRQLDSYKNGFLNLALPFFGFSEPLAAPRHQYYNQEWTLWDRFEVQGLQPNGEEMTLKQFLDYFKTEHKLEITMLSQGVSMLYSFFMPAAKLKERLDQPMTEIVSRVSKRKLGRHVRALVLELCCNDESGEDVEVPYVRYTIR

Homo sapiens [5] = species: Homo sapiens; test: Inhibition of ubiquitin/Ubc13/Uev1A (unknown origin)
[6] = target: Tumour suppressor p53/oncoprotein Mdm2 (Homo sapiens) (UniProt P04637+Q00987); test: Inhibition of ubiquitin/p53/Mdm2 (unknown origin); format: protein assay
Sequence of Tumour suppressor p53/oncoprotein Mdm2 (Homo sapiens) (P04637 whole entry, looked up): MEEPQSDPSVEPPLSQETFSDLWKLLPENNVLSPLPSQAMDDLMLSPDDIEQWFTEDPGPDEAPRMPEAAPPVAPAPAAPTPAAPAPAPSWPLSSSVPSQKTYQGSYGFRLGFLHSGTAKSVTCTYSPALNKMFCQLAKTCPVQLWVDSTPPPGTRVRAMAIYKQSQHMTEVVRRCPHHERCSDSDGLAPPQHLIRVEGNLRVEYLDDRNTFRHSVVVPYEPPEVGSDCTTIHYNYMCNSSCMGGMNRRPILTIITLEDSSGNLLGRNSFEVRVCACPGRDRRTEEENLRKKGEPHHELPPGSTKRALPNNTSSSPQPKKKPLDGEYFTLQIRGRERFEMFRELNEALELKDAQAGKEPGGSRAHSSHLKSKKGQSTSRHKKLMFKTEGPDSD
Sequence of Tumour suppressor p53/oncoprotein Mdm2 (Homo sapiens) (Q00987 whole entry, looked up): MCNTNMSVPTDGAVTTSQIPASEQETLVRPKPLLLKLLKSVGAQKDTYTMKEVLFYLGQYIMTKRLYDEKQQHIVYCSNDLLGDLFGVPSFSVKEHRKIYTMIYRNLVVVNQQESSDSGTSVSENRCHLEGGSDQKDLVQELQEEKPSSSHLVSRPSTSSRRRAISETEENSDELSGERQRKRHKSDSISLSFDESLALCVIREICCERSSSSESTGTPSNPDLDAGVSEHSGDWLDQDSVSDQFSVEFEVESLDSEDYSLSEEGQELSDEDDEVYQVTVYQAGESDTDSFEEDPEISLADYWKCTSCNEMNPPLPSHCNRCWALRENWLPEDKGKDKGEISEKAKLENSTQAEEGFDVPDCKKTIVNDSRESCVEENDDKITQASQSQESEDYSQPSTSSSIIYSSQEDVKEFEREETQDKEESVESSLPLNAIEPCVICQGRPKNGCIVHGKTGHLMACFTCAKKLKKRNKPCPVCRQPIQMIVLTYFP

[7] = target: Ubiquitin carboxyl-terminal hydrolase 7 (Homo sapiens) (UniProt Q93009); test: Inhibition of ubiquitin/USP7 (unknown origin)
Sequence of Ubiquitin carboxyl-terminal hydrolase 7 (Homo sapiens) (Q93009 whole entry, looked up): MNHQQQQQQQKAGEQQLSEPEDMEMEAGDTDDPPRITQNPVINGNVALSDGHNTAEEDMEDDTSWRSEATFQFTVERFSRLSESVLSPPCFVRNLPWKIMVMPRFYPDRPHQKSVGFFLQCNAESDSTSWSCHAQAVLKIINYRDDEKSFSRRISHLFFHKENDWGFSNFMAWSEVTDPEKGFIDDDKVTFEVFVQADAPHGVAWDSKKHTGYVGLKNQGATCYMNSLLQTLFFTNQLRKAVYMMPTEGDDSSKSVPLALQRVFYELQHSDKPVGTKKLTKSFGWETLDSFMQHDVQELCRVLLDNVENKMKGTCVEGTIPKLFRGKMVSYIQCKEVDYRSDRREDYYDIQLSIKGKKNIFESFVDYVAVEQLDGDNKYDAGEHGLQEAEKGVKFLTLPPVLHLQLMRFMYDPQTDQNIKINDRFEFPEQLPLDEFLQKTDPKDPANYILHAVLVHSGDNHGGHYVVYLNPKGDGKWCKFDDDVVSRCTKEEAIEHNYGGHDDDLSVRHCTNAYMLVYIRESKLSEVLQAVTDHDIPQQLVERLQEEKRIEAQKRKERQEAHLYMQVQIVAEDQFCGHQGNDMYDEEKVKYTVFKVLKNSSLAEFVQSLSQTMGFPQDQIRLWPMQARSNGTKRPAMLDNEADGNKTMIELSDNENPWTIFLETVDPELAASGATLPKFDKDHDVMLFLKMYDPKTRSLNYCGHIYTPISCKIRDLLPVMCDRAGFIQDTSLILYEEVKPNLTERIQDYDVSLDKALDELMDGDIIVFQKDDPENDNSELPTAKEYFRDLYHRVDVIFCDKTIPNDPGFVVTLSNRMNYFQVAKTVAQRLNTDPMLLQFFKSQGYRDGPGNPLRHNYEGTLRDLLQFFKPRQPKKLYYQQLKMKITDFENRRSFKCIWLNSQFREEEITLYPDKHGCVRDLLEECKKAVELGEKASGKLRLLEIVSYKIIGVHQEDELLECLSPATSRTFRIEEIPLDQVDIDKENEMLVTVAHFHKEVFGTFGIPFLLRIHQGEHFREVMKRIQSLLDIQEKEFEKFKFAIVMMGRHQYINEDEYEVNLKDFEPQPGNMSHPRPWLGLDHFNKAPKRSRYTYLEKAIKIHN

Measured: inhibition

CC1C2C=CC3(C)C1(C)CCC31C(=O)O[C@H](O)[C@@H]21 (some centres not stated)
inactive: all assays above

From ChEMBL document CHEMBL4130404, “Lamellodysidines A and B, Sesquiterpenes Isolated from the Marine Sponge Lamellodysidea herbacea” (J Nat Prod, 2017)
